Experimental data as given in PubChem BioAssay AID330 (DTP/NCI, 2004).
Values joined by “and” are separate entries in the source; they are usually repeats but may differ in a detail not shown here. Identical values can stand only once. Inconclusive results and toxic doses are left out.

Tested on: P388 leukemia ip, CD2F1 mice, survival T/C
Assay: NCI In Vivo Anticancer Drug Screen. Data for tumor model P388 Leukemia (intraperitoneal) in CD2F1 (CDF1) mice
Details: endpoint: median survival time, higher = longer survival
Description: The antitumor activity of compounds was measured in mice bearing transplantable tumors. Survival or tumor size were measured and the results are expressed as the measurement made in the treated group (T) divided by the measurement made in the vehicle treated control group (C). The tumor model used in this assay is P388 Leukemia (intraperitoneal) in CD2F1 (CDF1) mice

[1] = dose: 50.0 mg/kg/injection, schedule: Q01DX009 (ip), vehicle: saline with Tween-80
[2] = dose: 100.0 mg/kg/injection, schedule: Q01DX009 (ip), vehicle: saline with Tween-80
[3] = dose: 200.0 mg/kg/injection, schedule: Q01DX009 (ip), vehicle: saline with Tween-80
[4] = dose: 100.0 mg/kg/injection, schedule: Q04DX003 (ip), vehicle: saline with Tween-80
[5] = dose: 200.0 mg/kg/injection, schedule: Q04DX003 (ip), vehicle: saline with Tween-80
[6] = dose: 400.0 mg/kg/injection, schedule: Q01DX009 (ip), vehicle: saline with Tween-80
[7] = dose: 60.0 mg/kg/injection, schedule: Q01DX005 (ip), vehicle: saline with Tween-80
[8] = dose: 120.0 mg/kg/injection, schedule: Q01DX005 (ip), vehicle: saline with Tween-80
[9] = dose: 60.0 mg/kg/injection, schedule: Q01DX005 (ip), vehicle: Klucel (hydroxypropylcellulose) (HPC)
[10] = dose: 120.0 mg/kg/injection, schedule: Q01DX005 (ip), vehicle: Klucel (hydroxypropylcellulose) (HPC)
[11] = dose: 25.0 mg/kg/injection, schedule: Q04DX003 (ip), vehicle: saline
[12] = dose: 200.0 mg/kg/injection, schedule: Q04DX003 (ip), vehicle: saline
[13] = dose: 12.5 mg/kg/injection, schedule: Q01DX009 (ip), vehicle: saline
[14] = dose: 25.0 mg/kg/injection, schedule: Q01DX009 (ip), vehicle: saline
[15] = dose: 50.0 mg/kg/injection, schedule: Q01DX009 (ip), vehicle: saline
[16] = dose: 100.0 mg/kg/injection, schedule: Q01DX001 (ip), vehicle: saline with Tween-80
[17] = dose: 200.0 mg/kg/injection, schedule: Q01DX001 (ip), vehicle: saline with Tween-80
[18] = dose: 400.0 mg/kg/injection, schedule: Q01DX001 (ip), vehicle: saline with Tween-80
[19] = dose: 50.0 mg/kg/injection, schedule: Q01DX005 (ip), vehicle: Klucel (hydroxypropylcellulose) (HPC)
[20] = dose: 100.0 mg/kg/injection, schedule: Q01DX005 (ip), vehicle: Klucel (hydroxypropylcellulose) (HPC)
[21] = dose: 200.0 mg/kg/injection, schedule: Q01DX005 (ip), vehicle: Klucel (hydroxypropylcellulose) (HPC)
[22] = dose: 12.5 mg/kg/injection, schedule: Q01DX005 (ip), vehicle: Klucel (hydroxypropylcellulose) (HPC)
[23] = dose: 25.0 mg/kg/injection, schedule: Q01DX005 (ip), vehicle: Klucel (hydroxypropylcellulose) (HPC)

Cc1c2c(cn1C)NC(=O)CN=C2c1ccccc1
T/C [1]: 105 % of control
T/C [2]: 116 % of control
T/C [3]: 99 % of control

CCCn1c(=S)[nH]c2ccccc2c1=O
T/C [2]: 95 % of control
T/C [4]: 100 % of control
T/C [3]: 90 % of control
T/C [5]: 91 % of control
T/C [6]: 100 % of control
T/C (dose: 400.0 mg/kg/injection, schedule: Q04DX003 (ip), vehicle: saline with Tween-80): 91 % of control

CS/N=N/N=C(\c1ccccc1)N1CCOCC1
T/C [7]: 103 % of control
T/C [8]: 97 % of control

COc1ccc2c(c1OC)CCN1C3=C(CC(OC(=O)c4ccccc4)CC3)C(=O)CC21 (stereo not given)
T/C (dose: 100.0 mg/kg/injection, schedule: Q01DX001 (ip), vehicle: saline sonified): 100 % of control
T/C (dose: 200.0 mg/kg/injection, schedule: Q01DX001 (ip), vehicle: saline sonified): 110 % of control
T/C (dose: 400.0 mg/kg/injection, schedule: Q01DX001 (ip), vehicle: saline sonified): 110 % of control

NS(=O)(=O)c1ccc(NCc2cnc3ccccc3c2)cc1
T/C (dose: 5.0 mg/kg/injection, schedule: Q01DX009 (ip), vehicle: saline): 94 % of control
T/C (dose: 10.0 mg/kg/injection, schedule: Q01DX009 (ip), vehicle: saline): 88 % of control
T/C (dose: 20.0 mg/kg/injection, schedule: Q01DX009 (ip), vehicle: saline): 98 % of control

O=C1c2ccccc2C(=O)N1Cc1cccc(I)c1
T/C [9]: 97 % of control
T/C [10]: 94 % of control

CCOC(=O)CN(CCN(CC)CC)c1ccc([N+](=O)[O-])cc1[N+](=O)[O-]
T/C (dose: 100.0 mg/kg/injection, schedule: Q01DX001 (ip), vehicle: other): 95 % of control
T/C (dose: 200.0 mg/kg/injection, schedule: Q01DX001 (ip), vehicle: other): 100 % of control

COC(=O)C1CC(I)C2OC(=O)C1C2C(=O)OC (stereo not given)
T/C [7]: 91 % of control
T/C [8]: 99 % of control
T/C (dose: 240.0 mg/kg/injection, schedule: Q01DX005 (ip), vehicle: saline with Tween-80): 97 % of control

CCN(CC)C(=Nc1ccc(Cl)c(Cl)c1)SC(NC=O)=C(Cl)Cl
T/C [9]: 100 % of control
T/C [10]: 104 % of control
T/C (dose: 240.0 mg/kg/injection, schedule: Q01DX005 (ip), vehicle: Klucel (hydroxypropylcellulose) (HPC)): 104 % of control

CCN(CC)CCC(=O)Nc1cccc2c1C(=O)c1c(c(O)c3ccccc3c1O)C2=O
T/C (dose: 6.25 mg/kg/injection, schedule: Q04DX003 (ip), vehicle: Klucel (hydroxypropylcellulose) (HPC)): 100 % of control
T/C (dose: 12.5 mg/kg/injection, schedule: Q04DX003 (ip), vehicle: Klucel (hydroxypropylcellulose) (HPC)): 100 % of control
T/C (dose: 25.0 mg/kg/injection, schedule: Q04DX003 (ip), vehicle: Klucel (hydroxypropylcellulose) (HPC)): 104 % of control
T/C [11]: 98 % of control
T/C (dose: 50.0 mg/kg/injection, schedule: Q04DX003 (ip), vehicle: Klucel (hydroxypropylcellulose) (HPC)): 100 % of control
T/C (dose: 50.0 mg/kg/injection, schedule: Q04DX003 (ip), vehicle: saline): 92 % of control
T/C (dose: 100.0 mg/kg/injection, schedule: Q04DX003 (ip), vehicle: Klucel (hydroxypropylcellulose) (HPC)): 106 % of control
T/C (dose: 100.0 mg/kg/injection, schedule: Q04DX003 (ip), vehicle: saline): 108 % of control
T/C [12]: 100 % of control

CCN(C)N=Nc1cccnc1
T/C [13]: 103 % of control and 92 % of control and 97 % of control
T/C [14]: 100 % of control and 102 % of control and 92 % of control
T/C [15]: 103 % of control and 111 % of control and 91 % of control
T/C (dose: 100.0 mg/kg/injection, schedule: Q01DX009 (ip), vehicle: saline): 107 % of control and 110 % of control

c1ccc(OP(Oc2ccccc2)(c2ccccc2)(c2ccccc2)c2ccccc2)cc1
T/C (dose: 50.0 mg/kg/injection, schedule: Q01DX009 (ip), vehicle: Klucel (hydroxypropylcellulose) (HPC)): 97 % of control
T/C (dose: 100.0 mg/kg/injection, schedule: Q01DX009 (ip), vehicle: Klucel (hydroxypropylcellulose) (HPC)): 99 % of control
T/C (dose: 200.0 mg/kg/injection, schedule: Q01DX009 (ip), vehicle: Klucel (hydroxypropylcellulose) (HPC)): 111 % of control

O=S(=O)(O)SCCN1CCCCC1
T/C [13]: 110 % of control
T/C [14]: 100 % of control
T/C [15]: 100 % of control

C#CCn1cnc2c(=S)nc[nH]c21
T/C (dose: 180.0 mg/kg/injection, schedule: Q01DX009 (ip), vehicle: saline with Tween-80): 87 % of control

CC(=O)OC1SC(C)(C)n2c1nc1ccccc1c2=O (stereo not given)
T/C [16]: 100 % of control
T/C [17]: 104 % of control
T/C [18]: 98 % of control

C[C@@]1(N=Cc2ccccc2)C(=O)NC(=O)C2=CN(Cc3ccccc3)C=C[C@@H]21
T/C [19]: 102 % of control
T/C [20]: 99 % of control
T/C [21]: 89 % of control

Cc1cc(NC(=O)NCc2ccc(N3C(N)=NC(N)=NC3(C)C)cc2)ccc1S(=O)(=O)F
T/C (dose: 12.5 mg/kg/injection, schedule: Q01DX009 (ip), vehicle: saline with Tween-80): 119 % of control
T/C (dose: 25.0 mg/kg/injection, schedule: Q04DX003 (ip), vehicle: saline with Tween-80): 105 % of control
T/C [11]: 109 % of control
T/C (dose: 50.0 mg/kg/injection, schedule: Q04DX003 (ip), vehicle: saline with Tween-80): 119 % of control
T/C [2]: 176 % of control
T/C [4]: 153 % of control
T/C [5]: 164 % of control
T/C [12]: 154 % of control
T/C (dose: 400.0 mg/kg/injection, schedule: Q04DX003 (ip), vehicle: saline): 90 % of control

CN(C)/N=N/c1nc[nH]c1C(N)=O
T/C [22]: 95 % of control
T/C [23]: 105 % of control
T/C (dose: 25.0 mg/kg/injection, schedule: Q01DX009 (ip), vehicle: saline with Tween-80): 123 % of control
T/C [19]: 105 % of control
T/C (dose: 50.0 mg/kg/injection, schedule: Q01DX005 (ip), vehicle: saline with Tween-80): 106 % of control
T/C [1]: 120 % of control
T/C [20]: 115 % of control
T/C (dose: 100.0 mg/kg/injection, schedule: Q01DX005 (ip), vehicle: saline with Tween-80): 119 % of control
T/C [2]: 120 % of control
T/C (dose: 150.0 mg/kg/injection, schedule: Q01DX005 (ip), vehicle: distilled water + Tween-80): 166 % of control
T/C [21]: 122 % of control
T/C [3]: 103 % of control
T/C (dose: 300.0 mg/kg/injection, schedule: Q01DX005 (ip), vehicle: distilled water + Tween-80): 156 % of control
T/C (dose: 400.0 mg/kg/injection, schedule: Q01DX005 (ip), vehicle: saline with Tween-80): 121 % of control
T/C [6]: 86 % of control

COc1ccc2c(N/N=C/c3ccc4c(c3)OCO4)cc(C)nc2c1
T/C (dose: 1.5 mg/kg/injection, schedule: Q01DX005 (ip), vehicle: Klucel (hydroxypropylcellulose) (HPC)): 95 % of control
T/C (dose: 3.0 mg/kg/injection, schedule: Q01DX005 (ip), vehicle: Klucel (hydroxypropylcellulose) (HPC)): 93 % of control
T/C (dose: 6.0 mg/kg/injection, schedule: Q01DX005 (ip), vehicle: Klucel (hydroxypropylcellulose) (HPC)): 95 % of control
T/C (dose: 6.25 mg/kg/injection, schedule: Q01DX005 (ip), vehicle: Klucel (hydroxypropylcellulose) (HPC)): 88 % of control
T/C [22]: 107 % of control
T/C [23]: 88 % of control

COC(CNC(c1ccccc1)C(O)c1ccccc1)(OC)OC (stereo not given)
T/C [16]: 97 % of control
T/C [17]: 97 % of control
T/C [18]: 97 % of control

CC(=Nc1c(C)noc1/C=C/c1ccccc1)NO
T/C (dose: 12.5 mg/kg/injection, schedule: Q04DX002 (ip), vehicle: saline with Tween-80): 104 % of control
T/C (dose: 25.0 mg/kg/injection, schedule: Q04DX002 (ip), vehicle: saline with Tween-80): 97 % of control
T/C (dose: 50.0 mg/kg/injection, schedule: Q04DX002 (ip), vehicle: saline with Tween-80): 95 % of control
T/C (dose: 100.0 mg/kg/injection, schedule: Q04DX002 (ip), vehicle: saline with Tween-80): 87 % of control
